We go through 1 molecule from patent publication US11691977B2, “Cyclic ether derivatives of pyrazolo[1,5-A]pyrimidine-3-carboxyamide” (Boehringer Ingelheim International GmbH, priority 2015, dated 2023).

For data set [1], the target named is PDE 2A (Homo sapiens (Human), UniProt O00408). Kind of data set: Phosphodiesterase (PDE) 2A assay with fluorescent substrate (IMAP, fluorescence polarization). The conditions noted are these: PDE2A, read-out: PDE2 IC50. It counts as biochemical. As to the method: (§1) The IMAP system (Molecular Device) using fluorescence polarization (FP) as detection principle was used to measure enzyme activity. A fluorescent labeled cAMP was used as substrate for the reaction, generating a labeled AMP. The fluorescent AMP binds specifically to the large M(III)-based nano-particles which reduces the rotational speed of the substrate and thus increases its polarization. Detailed Method: The inhibition of PDE 2A or 10 enzyme activity was assessed using IMAP-Phosphodiesterase-cAMP fluorescence labeled substrate (Molecular Devices, Order No. R7506), IMAP TR-FRET screening express (Molecular Devices, Order No. R8160, the TR-FRET component will not be used) and PDE 2A or PDE10 protein expressed upon baculovirus infection in SF9 cells. The cells were incubated after infection for ˜3 days and protein production was confirmed by Western Blot. The cells were collected by centrifugation and the pellet frozen in liquid nitrogen before it was resuspended in PBS containing 1% Triton X-100 and protease inhibitors. After 45 min incubation on ice, the cell debris was removed by centrifugation (13.000 rpm, 30 min). […] All reactions were performed in 384 well plates, Perkin Elmer black optiplates and IMAP reaction buffer with 0.1% Tween20 (kit component) Compounds were serial diluted in DMSO. […] Reaction is stopped by adding of 60 μl binding buffer for FP/cAMP (kit component).
(In general: Fluorescence polarisation rises when a labelled molecule tumbles more slowly, as on binding a larger partner.)

Data set [2] addresses PDE10 (Homo sapiens (Human), UniProt Q9Y233). Kind of data set: Phosphodiesterase (PDE) 10 assay with fluorescent substrate (IMAP, fluorescence polarization). It counts as biochemical. As to the method:
as §1

Data set [3] relates to human MDR1 P-gp. Kind of data set: Assessment of efflux in MDCK cells transfected with the human MDR1 gene (MDCK assay). It counts as in vitro ADME, canine. The conditions noted are these: dog. As to the method: Assessment of Efflux in Madin-Darby Canine Kidney Cells Transfected with the Human MDR1 Gene (MDCK Assay)
Apparent permeability coefficients (PE) of the compounds across the MDCK-MDR1 cell monolayers are measured (pH 7.4, 37° C.) in apical-to-basal (AB) and basal-to-apical (BA) transport direction. AB permeability (PEAB) represents drug absorption from the blood into the brain and BA permeability (PEBA) drug efflux from the brain back into the blood via both passive permeability as well as active transport mechanisms mediated by efflux and uptake transporters that are expressed on the MDCK-MDR1 cells, predominantly by the overexpressed human MDR1 P-gp. The compounds are assigned to permeability/absorption classes by comparison of the AB permeabilities with the AB permeabilities of reference compounds with known in vitro permeability and oral absorption in the human. Identical or similar permeabilities in both transport directions indicate passive permeation, vectorial permeability points to additional active transport mechanisms. Higher PEBA than PEAB indicates the involvement of active efflux mediated by MDR1 P-gp. […]
MDCK-MDR1 cells (1-2×10e5 cells/1 cm2 area) are seeded on filter inserts (Costar transwell polycarbonate or PET filters, 0.4 μm pore size) and cultured (DMEM) for 7 days. […] Efflux ratio is calculated dividing the Papp (b-a) values by the Papp (a-b) values.

Chain of PDE10 (Q9Y233 whole entry): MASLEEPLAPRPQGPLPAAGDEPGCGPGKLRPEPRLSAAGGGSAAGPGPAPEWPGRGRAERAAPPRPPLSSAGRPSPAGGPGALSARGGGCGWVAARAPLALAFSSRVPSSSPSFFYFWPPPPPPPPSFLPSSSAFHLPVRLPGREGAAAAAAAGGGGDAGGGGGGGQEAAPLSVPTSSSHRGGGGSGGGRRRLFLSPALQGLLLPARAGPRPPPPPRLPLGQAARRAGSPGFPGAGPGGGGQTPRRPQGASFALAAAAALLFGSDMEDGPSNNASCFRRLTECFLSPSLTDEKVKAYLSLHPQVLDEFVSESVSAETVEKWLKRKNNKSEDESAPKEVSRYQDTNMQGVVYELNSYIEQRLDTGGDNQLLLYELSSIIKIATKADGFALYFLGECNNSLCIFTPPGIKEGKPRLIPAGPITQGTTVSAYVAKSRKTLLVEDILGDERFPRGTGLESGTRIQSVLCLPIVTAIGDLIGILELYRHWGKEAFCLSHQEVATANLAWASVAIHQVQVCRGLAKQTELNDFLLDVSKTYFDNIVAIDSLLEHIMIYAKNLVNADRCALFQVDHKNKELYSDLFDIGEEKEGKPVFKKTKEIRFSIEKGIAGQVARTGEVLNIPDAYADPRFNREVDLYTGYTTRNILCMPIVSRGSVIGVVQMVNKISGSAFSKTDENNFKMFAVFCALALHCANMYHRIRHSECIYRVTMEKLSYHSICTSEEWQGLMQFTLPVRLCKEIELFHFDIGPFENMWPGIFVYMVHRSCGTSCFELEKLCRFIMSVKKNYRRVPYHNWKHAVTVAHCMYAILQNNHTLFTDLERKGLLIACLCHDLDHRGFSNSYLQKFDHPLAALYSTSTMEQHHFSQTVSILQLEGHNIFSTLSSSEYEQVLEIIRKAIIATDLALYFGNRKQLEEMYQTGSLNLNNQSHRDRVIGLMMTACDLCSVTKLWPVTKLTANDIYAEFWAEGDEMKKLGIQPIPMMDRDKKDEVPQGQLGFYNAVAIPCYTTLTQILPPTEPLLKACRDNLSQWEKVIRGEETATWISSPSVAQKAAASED
Chain of PDE 2A (O00408 whole entry, species assumed): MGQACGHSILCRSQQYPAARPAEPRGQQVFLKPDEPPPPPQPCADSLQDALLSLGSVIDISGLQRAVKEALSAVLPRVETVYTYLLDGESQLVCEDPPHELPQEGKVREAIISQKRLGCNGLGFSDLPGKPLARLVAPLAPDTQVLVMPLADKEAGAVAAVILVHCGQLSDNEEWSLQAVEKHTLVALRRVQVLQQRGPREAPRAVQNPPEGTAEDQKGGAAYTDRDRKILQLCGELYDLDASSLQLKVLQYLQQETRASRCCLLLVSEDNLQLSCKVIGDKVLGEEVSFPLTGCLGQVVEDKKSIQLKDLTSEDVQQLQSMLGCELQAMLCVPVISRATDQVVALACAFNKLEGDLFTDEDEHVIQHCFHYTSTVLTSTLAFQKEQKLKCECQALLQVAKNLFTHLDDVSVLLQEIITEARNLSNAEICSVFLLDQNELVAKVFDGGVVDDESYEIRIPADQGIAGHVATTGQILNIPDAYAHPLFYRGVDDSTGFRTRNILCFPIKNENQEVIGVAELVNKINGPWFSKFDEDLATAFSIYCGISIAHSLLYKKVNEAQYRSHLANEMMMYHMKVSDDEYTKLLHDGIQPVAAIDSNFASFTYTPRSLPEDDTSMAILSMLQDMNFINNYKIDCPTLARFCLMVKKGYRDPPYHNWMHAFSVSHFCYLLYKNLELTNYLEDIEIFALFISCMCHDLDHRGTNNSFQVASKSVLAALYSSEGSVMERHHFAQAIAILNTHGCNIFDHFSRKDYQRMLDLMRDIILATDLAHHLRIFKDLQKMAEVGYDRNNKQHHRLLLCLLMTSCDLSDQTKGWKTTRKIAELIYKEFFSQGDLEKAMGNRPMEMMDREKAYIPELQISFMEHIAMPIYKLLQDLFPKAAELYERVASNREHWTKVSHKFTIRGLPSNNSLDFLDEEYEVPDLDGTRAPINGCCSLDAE

`Cc1nn2cc(C3CC3)cnc2c1C(=O)NC1(c2ccc(C(F)(F)F)cn2)CCOCC1` [Example 25]: the results for the concentration for half-maximal inhibition (IC50) in data set [1] and in data set [2] were 88 nM and 9.07 µM, respectively. The efflux ratio (in general, a quotient of directional permeabilities that is used to spot active efflux) in data set [3] (pH 7.4, MDCK-MDR1, Papp (b-a) divided by Papp (a-b)) amounted to 0.8. Besides, the apical-to-basolateral permeability (Papp A→B) (commonly the apparent permeability from the apical to the basolateral side of a cell layer) in data set [3] (MDCK-MDR1, apical-to-basal, pH 7.4, 37° C.) was 100 ×10⁻⁶ cm/s.
